From ChEMBL document CHEMBL1201862, “PubChem BioAssay data set” (2004)
Active and inactive are the calls of the source.

How the values were obtained:
[1] = A cytotoxicity screen of small molecule inhibitors of the PhoP region in Salmonella typhi identified in the primary screen. [Related pubchem assays: 1850, 1864, 1985 ]; type: functional
[2] = target: Sphingosine 1-phosphate receptor 2 (Homo sapiens, UniProt O95136); experiment: Dose Response Cell Based Assay for Agonists of the S1P2 Receptor. [Related pubchem assays: 729, 736, 843 ]; type: functional
[3] = target: Glutathione-S-transferase (Schistosoma japonicum, UniProt Q26513); experiment: GST-antibody interaction or FRET quenching – biochemical, TR-FRET, artefact control for Vif-APOBEC3G degradation inhibitor project, dose response (AID 1117362); type: functional
Transthyretin = Transthyretin (Homo sapiens, UniProt P02766); experiment: Luminescence-based cell-based high throughput dose response assay to identify activators of Transthyretin (TTR) transcription.; type: functional
[4] = target: E3 ubiquitin-protein ligase Mdm2 (Homo sapiens, UniProt Q00987); experiment: MDM2-luc reporter signal enhancers, multi-concentration potency testing, MDM2 ubiquitin-protein ligase inhibitor program, whole-cell format, luminescence detection, 384-well microplate (AID 1394); type: functional;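 further: MDM2 E3 inhibitors raise luminescence so EC50 is for signal enhancement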
[5] = A549 lung cell viability reduction – CellTiter-Glo luminescence, cherry-pick, cytotoxicity control, dose response (AID 743484); type: functional, cell-based
[6] = alpha-synuclein stem-loop luciferase translation blockers – H4 neuroglioma cells, luminescence, confirmation (AID 1988); type: functional, cell-based
[7] = target: DNA repair and recombination protein RAD54-like (Homo sapiens, UniProt Q92698); experiment: RAD54 Holliday junction migration blockers – biochemical, fluorescence, cherry-picked samples, dose series, confirmation (AID 651657); type: functional
[8] = target: SWI/SNF-related matrix-associated actin-dependent regulator of chromatin subfamily A member 2 (Homo sapiens, UniProt P51531); experiment: Luminescence-based cell-based high throughput dose response assay to identify activators of the function of SWI/SNF related, matrix associated, actin dependent regulator of chromatin, subfamily a, member 2 (SMARCA2, BRM).; type: functional
[9] = target: T1, Heat shock factor protein 1 (Mus musculus, UniProt P38532); experiment: enhancement of HSF1-driven luciferase signal – cell-based, NIH3T3, luminescence, dose retest, confirmation (AID 435004); type: functional;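 further: stress induced by proteasome inhibitor MG132 added 30 min after compound; luciferase reporter driven by HSF1 response element in NIH3T3 cells; actives raise luminescence as potentiators of the MG132 stress response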
T1 sequence (P38532 whole entry): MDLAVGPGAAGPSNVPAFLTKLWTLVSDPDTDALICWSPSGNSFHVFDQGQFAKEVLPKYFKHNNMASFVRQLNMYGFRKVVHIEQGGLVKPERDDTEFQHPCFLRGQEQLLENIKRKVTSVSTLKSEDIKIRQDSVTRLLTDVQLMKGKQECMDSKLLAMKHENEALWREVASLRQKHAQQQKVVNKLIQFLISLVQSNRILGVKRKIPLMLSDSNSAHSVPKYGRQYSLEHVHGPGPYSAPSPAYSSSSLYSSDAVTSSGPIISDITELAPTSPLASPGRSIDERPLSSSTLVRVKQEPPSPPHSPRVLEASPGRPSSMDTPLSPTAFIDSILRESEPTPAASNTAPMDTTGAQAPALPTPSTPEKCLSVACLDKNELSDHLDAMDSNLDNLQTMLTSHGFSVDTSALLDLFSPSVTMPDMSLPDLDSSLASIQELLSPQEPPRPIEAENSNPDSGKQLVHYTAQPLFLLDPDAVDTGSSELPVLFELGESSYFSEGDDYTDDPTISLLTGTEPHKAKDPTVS

[10] = Luminescence Cell-Based Dose Response HTS to Identify Inhibitors of 5'UTR Stem-Loop Driven Prion Protein mRNA Translation in H4 Neuroglioblastoma Cells. [Related pubchem assays: 1827 (Project Summary), 1813 (Primary HTS)]; type: functional
[11] = ATP-based viability loss in HEK293T cells – cell-based, CellTiter-Glo luminescence, cherry-picked samples, set 4, cytotoxicity control, dose response (AID 743441); type: functional; conditions: HEK293
[12] = Counterscreen for activators of the function of SWI/SNF related, matrix associated, actin dependent regulator of chromatin, subfamily a, member 2 (SMARCA2, BRM): Luminescence-based cell-based high throughput dose response assay to identify non-selective compounds using the VP16 reporter assay.; type: functional
[13] = target: Mitogen-activated protein kinase 10 (Homo sapiens, UniProt P53779); experiment: Dose response biochemical screening assay for inhibitors of c-Jun N-Terminal Kinase 3 (JNK3). [Related pubchem assays: 746 ]
Major prion protein = Major prion protein (Homo sapiens, UniProt P04156); type: functional, cell-based
cells [14] = experiment: cells
[15] = target: Oxysterols receptor LXR-beta (Homo sapiens, UniProt P55055); experiment: LXR agonists, Gal4 luciferase reporter, dose response, counter-screen for ssDAF-12 agonist project, cell-based, luminescence, HEK293, S. stercoralis campaign (AID 720737); type: functional; conditions: read-out: IC50 (the source's name)
[16] = Luminescence-based cell-based high throughput dose response assay to identify activators of the DAF-12 from the parasite S. stercoralis (ssDAF-12).; type: functional
Kallikrein-7 = Kallikrein-7 (Homo sapiens, UniProt P49862); experiment: Fluorescence Intensity-based biochemical primary high throughput dose response assay to identify activators of kallikrein-7 (K7) zymogen.
[17] = viability loss in CEM21 cells – cell-based, plate reader, dry powder, cytotoxicity control, dose response (AID 687026); type: functional
[18] = inhibition of Env-driven cell fusion – HIV entry, plate reader, dry powder, dose response (AID 687023); type: functional, cell-based
[19] = cytotoxicity in melanoma parental cells – cell-based, CellTiter-Glo, dry powder, set 6, MITF inhibitor project, dose response (AID 624429); type: functional; conditions: SK-MEL-5
[20] = MITF Measured in Cell-Based System Using Plate Reader - 2084-01_Inhibitor_Dose_DryPowder_Activity_Set6.; type: functional
[21] = growth inhibition of SK-MEL-5 melanoma cells – cell-based, CellTiter-Glo luminescence, dry powder, set 8, orthogonal assay for MITF inhibitor project, dose response (AID 651586); type: functional
[22] = inhibitors of TRPM1-promoter reporter in SK-MEL-5 – cell-based, luciferase, dry powder, set 9, MITF inhibitor project, dose response (AID 651588); type: functional
[23] = MITF Orthogonal Assay: MALME3 CTG Assay Measured in Cell-Based System Using Plate Reader - 2084-04_Inhibitor_Dose_DryPowder_Activity_Set6.; type: functional; conditions: MALME-3
[24] = MITF Measured in Cell-Based System Using Plate Reader - 2084-01_Inhibitor_Dose_DryPowder_Activity_Set7.; type: functional
[25] = MITF Orthogonal Assay: SK-MEL-5 CTG Assay Measured in Cell-Based System Using Plate Reader - 2084-02_Inhibitor_Dose_DryPowder_Activity_Set5.; type: functional
[26] = growth inhibition of MALME3 cells – cell-based, CellTiter-Glo luminescence, dry powder, set 5, orthogonal assay for MITF inhibitor project, dose response (AID 651584); type: functional; conditions: MALME-3
[27] = cytotoxicity in MITF-independent A375 cells – cell-based, CellTiter-Glo luminescence, dry powder, set 4, counter-screen for MITF inhibitor project, dose response (AID 624364); type: functional; conditions: A-375;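 further: A375 melanoma cells are MITF independent so this is a counter screen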
[28] = target: G-protein coupled receptor 183 (Homo sapiens, UniProt P32249); experiment: SAR confirmation of small molecule antagonists of the EBI2 receptor via a luminescent beta-arrestin assa.; type: functional
[29] = Dd2 malaria parasite growth inhibition potency – SYBR Green, dry powder samples, dose response (AID 1159566); type: functional, cell-based;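 further: potency for growth inhibition with lower SYBR green DNA signal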
[30] = P. falciparum Dd2 growth inhibitors, dose response, SYBR Green, cherry-picked samples (AID 1159567); type: functional, cell-based
[31] = toxicity to human HepG2 hepatoma cells – cell-based, plate reader, dry powder samples, cytotoxicity control, dose response (AID 1159569); type: functional;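 further: inhibitor potency with signal falling toward the positive control level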
[32] = growth inhibition of PfATP4-mutant resistant parasites – NITD609-resistant line, SYBR Green, dry powder, dose response (AID 1159571); type: functional, cell-based;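 further: parasites synchronized at ring stage by sorbitol before testing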
[33] = growth inhibition of yeast DHODH-expressing 3D7 parasites – SYBR Green, dry powder samples, dose response (AID 1159570); type: functional, cell-based;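 further: parasite growth measured after 72 hours of compound exposure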
[34] = target: RNA-editing ligase 1, mitochondrial (Trypanosoma brucei brucei, UniProt P86926); experiment: inhibition of trypanosome RNA editing ligase – biochemical, fluorescence, Trypanosoma brucei, dose response (AID 1117295); type: functional
Phospholipase D2 = Phospholipase D2 (Homo sapiens, UniProt O14939); experiment: PLD2 Cellular Concentration Response Study.; type: functional
Phospholipase D1 = Phospholipase D1 (Homo sapiens, UniProt Q13393); experiment: PLD1 Cellular Concentration Response Study.; type: functional
[35] = target: Calcium-dependent protein kinase 1 (Plasmodium falciparum, UniProt P62344); experiment: PfCDPK1 kinase inhibitors, biochemical, TCAMS library (AID 1159585); type: functional
cells [36] = type: functional, cell-based; conditions: INS-1E
Cytochrome P450 1A2 = target: T2, Cytochrome P450 1A2 (Homo sapiens, UniProt P05177);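 further: PubChem cytochrome P450 panel assay, CYP1A2 panel member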
T2 sequence (P05177 whole entry): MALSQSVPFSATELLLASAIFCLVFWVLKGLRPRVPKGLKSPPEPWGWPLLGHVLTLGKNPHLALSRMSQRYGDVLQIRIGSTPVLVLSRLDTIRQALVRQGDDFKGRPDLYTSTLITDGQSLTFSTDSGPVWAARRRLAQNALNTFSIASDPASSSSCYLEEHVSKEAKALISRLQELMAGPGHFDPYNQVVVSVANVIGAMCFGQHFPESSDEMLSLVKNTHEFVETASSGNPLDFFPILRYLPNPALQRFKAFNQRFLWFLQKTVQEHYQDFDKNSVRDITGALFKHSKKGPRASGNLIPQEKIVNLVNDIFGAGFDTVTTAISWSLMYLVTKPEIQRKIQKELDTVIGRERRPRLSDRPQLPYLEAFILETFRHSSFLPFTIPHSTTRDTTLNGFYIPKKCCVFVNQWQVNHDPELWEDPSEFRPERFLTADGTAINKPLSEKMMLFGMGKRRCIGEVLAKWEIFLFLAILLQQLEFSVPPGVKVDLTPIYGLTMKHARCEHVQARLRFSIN

[37] = IC50 of insulin release inhibition, rat insulinoma INS-1E line, 5 mM glucose, cell-based (AID 1117331); type: functional

DNA repair and recombination protein RAD54-like, sequence (Q92698 whole entry): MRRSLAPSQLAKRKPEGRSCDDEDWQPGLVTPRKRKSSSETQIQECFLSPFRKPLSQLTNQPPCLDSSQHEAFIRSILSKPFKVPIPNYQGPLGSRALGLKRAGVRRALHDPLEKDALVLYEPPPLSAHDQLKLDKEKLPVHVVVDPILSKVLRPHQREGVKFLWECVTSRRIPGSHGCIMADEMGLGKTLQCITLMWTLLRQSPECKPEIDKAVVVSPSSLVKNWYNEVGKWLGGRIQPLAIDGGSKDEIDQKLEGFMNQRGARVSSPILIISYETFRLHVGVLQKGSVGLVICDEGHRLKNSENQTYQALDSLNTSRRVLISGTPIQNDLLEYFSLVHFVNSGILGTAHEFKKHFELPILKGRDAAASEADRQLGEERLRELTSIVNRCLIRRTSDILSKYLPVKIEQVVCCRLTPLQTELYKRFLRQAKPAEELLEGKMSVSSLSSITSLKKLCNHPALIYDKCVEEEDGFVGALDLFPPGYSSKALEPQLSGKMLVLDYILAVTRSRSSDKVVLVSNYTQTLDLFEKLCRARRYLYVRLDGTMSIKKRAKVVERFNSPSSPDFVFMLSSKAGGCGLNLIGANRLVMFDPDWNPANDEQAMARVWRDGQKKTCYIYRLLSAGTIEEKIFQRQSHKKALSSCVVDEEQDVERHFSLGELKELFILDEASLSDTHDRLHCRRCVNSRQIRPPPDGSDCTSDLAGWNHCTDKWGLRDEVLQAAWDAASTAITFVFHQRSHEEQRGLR
RNA-editing ligase 1, mitochondrial, sequence (P86926 whole entry): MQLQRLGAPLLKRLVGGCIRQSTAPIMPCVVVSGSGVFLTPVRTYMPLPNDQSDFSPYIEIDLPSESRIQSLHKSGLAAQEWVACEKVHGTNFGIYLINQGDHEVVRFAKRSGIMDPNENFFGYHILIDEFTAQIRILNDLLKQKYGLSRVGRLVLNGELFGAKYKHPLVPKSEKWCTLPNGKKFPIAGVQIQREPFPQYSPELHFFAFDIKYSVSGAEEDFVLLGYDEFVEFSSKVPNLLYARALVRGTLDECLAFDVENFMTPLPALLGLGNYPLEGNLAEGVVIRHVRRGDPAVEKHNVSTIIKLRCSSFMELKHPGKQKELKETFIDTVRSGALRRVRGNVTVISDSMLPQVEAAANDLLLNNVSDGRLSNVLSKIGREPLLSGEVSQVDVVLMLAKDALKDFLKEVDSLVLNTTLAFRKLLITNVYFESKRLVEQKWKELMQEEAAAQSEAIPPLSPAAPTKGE
G-protein coupled receptor 183, sequence (P32249 whole entry): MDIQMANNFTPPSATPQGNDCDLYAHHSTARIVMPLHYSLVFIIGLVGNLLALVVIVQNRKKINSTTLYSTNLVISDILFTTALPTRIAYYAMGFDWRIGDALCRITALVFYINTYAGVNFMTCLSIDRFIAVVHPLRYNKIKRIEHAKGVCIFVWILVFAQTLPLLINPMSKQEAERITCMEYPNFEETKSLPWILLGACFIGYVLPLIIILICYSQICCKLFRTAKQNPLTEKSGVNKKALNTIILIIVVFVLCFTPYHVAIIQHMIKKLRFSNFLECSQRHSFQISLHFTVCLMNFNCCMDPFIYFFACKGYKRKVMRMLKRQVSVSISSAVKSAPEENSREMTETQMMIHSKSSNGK
E3 ubiquitin-protein ligase Mdm2, sequence (Q00987 whole entry): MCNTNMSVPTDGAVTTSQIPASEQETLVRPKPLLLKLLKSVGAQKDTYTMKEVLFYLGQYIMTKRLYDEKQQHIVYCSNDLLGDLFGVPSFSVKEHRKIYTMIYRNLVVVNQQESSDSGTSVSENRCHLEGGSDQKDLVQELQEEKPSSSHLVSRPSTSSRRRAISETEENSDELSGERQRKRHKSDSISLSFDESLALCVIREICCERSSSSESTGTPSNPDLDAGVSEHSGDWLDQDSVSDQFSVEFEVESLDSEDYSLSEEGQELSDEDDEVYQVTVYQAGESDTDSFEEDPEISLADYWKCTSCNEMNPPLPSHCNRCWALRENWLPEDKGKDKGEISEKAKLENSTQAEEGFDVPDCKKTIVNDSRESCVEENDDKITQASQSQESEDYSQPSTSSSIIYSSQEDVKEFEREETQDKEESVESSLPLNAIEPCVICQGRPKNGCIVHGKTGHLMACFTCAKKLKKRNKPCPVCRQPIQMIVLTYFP
SWI/SNF-related matrix-associated actin-dependent regulator of chromatin subfamily A member 2, sequence (P51531 whole entry): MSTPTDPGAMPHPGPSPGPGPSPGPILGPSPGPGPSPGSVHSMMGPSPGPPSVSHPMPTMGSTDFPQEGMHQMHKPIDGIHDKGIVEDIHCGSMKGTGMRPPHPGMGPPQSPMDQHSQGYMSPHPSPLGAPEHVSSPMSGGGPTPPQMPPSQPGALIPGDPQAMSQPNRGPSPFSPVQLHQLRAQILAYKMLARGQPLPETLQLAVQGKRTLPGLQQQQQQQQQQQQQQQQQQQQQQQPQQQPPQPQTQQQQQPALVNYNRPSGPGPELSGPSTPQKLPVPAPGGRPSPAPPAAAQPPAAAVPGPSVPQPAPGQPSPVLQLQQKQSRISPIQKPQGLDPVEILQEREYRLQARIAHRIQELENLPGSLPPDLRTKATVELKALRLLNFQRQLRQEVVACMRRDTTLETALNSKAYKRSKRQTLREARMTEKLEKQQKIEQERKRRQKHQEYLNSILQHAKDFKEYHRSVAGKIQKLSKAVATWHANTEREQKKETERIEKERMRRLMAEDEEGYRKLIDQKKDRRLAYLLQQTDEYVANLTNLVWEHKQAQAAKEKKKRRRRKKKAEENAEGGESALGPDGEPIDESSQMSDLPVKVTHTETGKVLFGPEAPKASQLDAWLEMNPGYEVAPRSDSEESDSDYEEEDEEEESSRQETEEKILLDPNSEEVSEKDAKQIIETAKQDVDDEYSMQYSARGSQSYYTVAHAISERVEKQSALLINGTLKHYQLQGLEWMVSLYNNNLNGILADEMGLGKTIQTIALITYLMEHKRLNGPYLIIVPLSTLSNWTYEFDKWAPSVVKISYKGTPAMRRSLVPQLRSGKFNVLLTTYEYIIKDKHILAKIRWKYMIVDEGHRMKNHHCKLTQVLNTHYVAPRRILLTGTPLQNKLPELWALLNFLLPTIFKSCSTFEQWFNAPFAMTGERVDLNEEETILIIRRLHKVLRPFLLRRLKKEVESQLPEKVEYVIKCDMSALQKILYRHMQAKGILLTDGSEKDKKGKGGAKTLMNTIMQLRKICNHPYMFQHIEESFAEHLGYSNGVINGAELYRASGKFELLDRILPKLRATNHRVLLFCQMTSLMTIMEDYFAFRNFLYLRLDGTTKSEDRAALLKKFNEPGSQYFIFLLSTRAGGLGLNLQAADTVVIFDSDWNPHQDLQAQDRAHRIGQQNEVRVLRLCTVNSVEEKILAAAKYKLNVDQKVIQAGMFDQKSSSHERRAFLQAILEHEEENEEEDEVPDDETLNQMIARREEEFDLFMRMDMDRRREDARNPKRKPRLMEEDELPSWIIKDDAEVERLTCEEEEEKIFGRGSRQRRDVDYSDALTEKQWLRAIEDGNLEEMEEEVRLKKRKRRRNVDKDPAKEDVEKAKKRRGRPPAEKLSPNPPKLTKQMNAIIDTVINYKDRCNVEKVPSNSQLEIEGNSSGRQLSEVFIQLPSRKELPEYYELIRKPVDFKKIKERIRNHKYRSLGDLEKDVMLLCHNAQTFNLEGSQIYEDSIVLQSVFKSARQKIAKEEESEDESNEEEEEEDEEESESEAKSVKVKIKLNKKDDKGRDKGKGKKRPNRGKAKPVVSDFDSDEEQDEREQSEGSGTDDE
Glutathione-S-transferase, sequence (Q26513 whole entry): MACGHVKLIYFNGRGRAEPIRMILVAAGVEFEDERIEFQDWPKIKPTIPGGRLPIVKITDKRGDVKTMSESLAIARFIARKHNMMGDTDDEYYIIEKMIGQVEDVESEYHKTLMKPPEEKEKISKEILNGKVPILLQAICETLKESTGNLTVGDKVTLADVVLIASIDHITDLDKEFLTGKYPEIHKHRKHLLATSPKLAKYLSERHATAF
Mitogen-activated protein kinase 10, sequence (P53779 whole entry): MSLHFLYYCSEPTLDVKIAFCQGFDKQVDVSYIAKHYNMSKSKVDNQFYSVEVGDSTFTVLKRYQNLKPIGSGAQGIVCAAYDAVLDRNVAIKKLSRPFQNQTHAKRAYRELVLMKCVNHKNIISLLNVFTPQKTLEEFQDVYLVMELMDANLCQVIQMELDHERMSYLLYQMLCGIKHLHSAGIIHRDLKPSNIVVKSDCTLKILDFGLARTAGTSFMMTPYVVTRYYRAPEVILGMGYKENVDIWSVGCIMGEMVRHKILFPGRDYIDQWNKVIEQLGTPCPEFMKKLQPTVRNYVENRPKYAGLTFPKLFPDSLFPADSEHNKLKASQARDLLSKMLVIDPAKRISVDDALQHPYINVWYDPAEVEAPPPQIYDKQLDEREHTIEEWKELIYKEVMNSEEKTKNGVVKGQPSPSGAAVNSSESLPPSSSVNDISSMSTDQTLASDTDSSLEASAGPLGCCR
Oxysterols receptor LXR-beta, sequence (P55055 whole entry, the tested form may be a part): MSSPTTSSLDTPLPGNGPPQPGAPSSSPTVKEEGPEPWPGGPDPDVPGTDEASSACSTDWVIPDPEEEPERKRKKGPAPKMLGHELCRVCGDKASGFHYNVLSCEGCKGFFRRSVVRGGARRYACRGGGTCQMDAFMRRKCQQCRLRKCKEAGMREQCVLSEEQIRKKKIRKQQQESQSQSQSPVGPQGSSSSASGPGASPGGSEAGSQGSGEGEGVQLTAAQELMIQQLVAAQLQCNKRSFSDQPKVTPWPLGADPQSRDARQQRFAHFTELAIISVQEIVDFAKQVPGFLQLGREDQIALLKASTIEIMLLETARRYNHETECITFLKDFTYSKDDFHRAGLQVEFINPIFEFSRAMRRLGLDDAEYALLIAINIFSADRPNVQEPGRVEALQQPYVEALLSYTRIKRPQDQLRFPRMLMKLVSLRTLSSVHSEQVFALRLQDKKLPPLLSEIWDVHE

SMILES: Cc1cc(Br)ccc1OCCCCNCCO
- EC50 [1]: > 50 µM (active)
- EC50 [2]: > 50 µM (not active)

SMILES: O=C(O)C1Cc2ccccc2N2CCCC12 (stereo not drawn)
- IC50 [3]: 16.3 µM (active)

SMILES: O=C(O)c1ccc(CSc2nnc(Cc3ccccc3)o2)cc1
- EC50 (Transthyretin): > 167 µM (inactive)

SMILES: CN1C(C(=O)NCc2cccc(Br)c2)CC2Cn3c(nc4cc5ccccc5cc43)C21 (stereo not drawn)
- EC50 [4]: 11.1 µM (not active)

SMILES: CCN(CC)CCn1c2ccccc2c2nc3ccc([N+](=O)[O-])cc3cc21
- AC50 [5]: 39.6 µM (active)
- EC50 [6]: 8.22 µM (inconclusive)
- AC50 [7]: 1.56 µM (active)
- EC50 [8]: 7.55 µM (active)
- EC50 [9]: 15.8 µM (active)
- EC50 [10]: > 120 µM (not active)
- AC50 [11]: 5.85 µM (active)
- EC50 [12]: > 91.2 µM (inactive)

SMILES: O=C(O)CSc1ccc2ccccc2n1
- IC50 [13]: > 93.1 µM (not active)
- IC50 (Major prion protein): 6.89 µM (active)
- IC50 (cells [14]): > 138 µM (inactive)

SMILES: c1ccc(SCc2nc3ccccc3s2)nc1
- EC50 [15]: > 67.5 µM (inactive)
- IC50 [16]: > 67.5 µM (inactive)

SMILES: O=C1NC(C2CC3C=CC2C3)Nc2ccccc21 (stereo not drawn)
- EC50 (Kallikrein-7): > 69.4 µM (inactive)

SMILES: CCOc1ccc(S(=O)(=O)NCc2ccncc2)cc1OCC
- AC50 [17]: > 70 µM (inactive)
- AC50 [18]: 562 nM (active)

SMILES: NC1=C(NS(=O)(=O)c2ccc(Br)cc2)C(=O)c2ccccc2C1=O
- AC50 [19]: > 70 µM (inactive)
- AC50 [20]: 41.5 µM (active)
- AC50 [21]: > 70 µM (inactive)
- AC50 [22]: > 70 µM (inactive)
- AC50 [23]: > 70 µM (inactive)
- AC50 [24]: 53.6 µM (active)
- AC50 [25]: > 70 µM (inactive)
- AC50 [26]: > 70 µM (inactive)
- AC50 [27]: > 70 µM (inactive)

SMILES: O=C(Cc1ccc(Br)cc1)N1CCN(C(=O)c2ccc(Cl)cc2)CC1
- IC50 [28]: > 1 µM (inactive)

SMILES: CC(C)CC#Cc1ccc([C@@H]2[C@H](CO)N3CCCCN(S(=O)(=O)Cc4ccccc4)C[C@@H]23)cc1
- AC50 [29]: 805 nM (active)
- AC50 [30]: 2.3 µM (active)
- AC50 [31]: 9.93 µM (active)
- AC50 [32]: 957 nM (active)
- AC50 [33]: 1.48 µM (active)

SMILES: C=CCNC1=NC(c2ccc(F)cc2)C(C(=O)OC)=C(C)N1Cc1ccccc1C(F)(F)F (stereo not drawn)
- IC50 [34]: > 96.6 µM (inactive)

SMILES: O=C(NCCN1CCC2(CC1)C(=O)NCN2Cc1cccc(Cl)c1)c1ccc2ccccc2c1
- IC50 (Phospholipase D2): 250 nM (active)
- IC50 (Phospholipase D1): 2.8 µM (active)

SMILES: CC(C)(CN)c1nc(-c2ccc(Cl)c(O)c2)c(-c2ccnc(N)n2)[nH]1
- IC50 [35]: 7 nM (active)

SMILES: CCN(CC)CCOCCOC(=O)C1(c2ccccc2)CCCC1 [CARBETAPENTANE]
- IC50 (cells [36]): > 33.3 µM (inactive)
- AC50 (Cytochrome P450 1A2): 20 µM (inconclusive)
- IC50 [37]: 7.69 µM (inactive)
